Where two headings read alike, the source gives them in different places. Where a SMILES comes first, the peptide text is derived from it. Bridges are numbered along the chain shown (N, C = ends). [ ]: non-standard residue; d: D form.

One data set has as its target T1, KCa3.1 (Homo sapiens, UniProt O15554).
T1 construct: KCa3.1 activity stimulated in intact human AA cells by 1 μM A23187; endogenous in cells; host or cells: intact human AA red blood cells
To be noted: 50 nM; cited from earlier work.

Another data set has as its system mdx mice. Nature of the data set: Toxicity with daily subQ dosing for 30 days. The data set is classed as in vivo, mouse. To be noted: 5 mg/kg subQ daily, 30 days (month long). The procedure: This example describes toxicity studies with GsMTx-4. In one experiment, D-GsMTx4 was administered to 60 mdx mice and controls by daily subQ dosing at 5 mg/kg for 30 days at the Washington D.C. Wellstone center.

In another data set the test system is mice. Nature of the data set: Acute IV toxicity, observed for 1 hour, mice. The data set is classed as in vivo, mouse. How it is done: In another experiment, mice were IV injected with D-GsMTx4 at 9, 5, 3, and 1 mg/kg concentrations and observed for 1 hour at Covance Drug Development Company. There were 3 mice injected per concentration. […] All mice appeared normal by 1 hour.

A further data set relates to rats. Nature of the data set: Acute IV toxicity, observed for 1 hour, rats. The data set is classed as in vivo, rat. How it is done: In another experiment, rats were IV injected with D-GsMTx4 at 9, 3, and 1 mg/kg concentrations and observed for 1 hour at Covance Drug Development Company. There were 3 rats injected for 3 and 1 mg/kg and 1 rat injected for 9 mg/kg concentration.

The subject of another data set is ferrets. The experiment in a line: Cardiovascular hemodynamics and EKG after IV injection in telemetered animals. The data set is classed as in vivo, ferret. To be noted: IV 0.2 to 5 mg/kg. How it is done:
In another study, Cardiovascular hemodynamics and EKG was assessed after IV injection of D-GsMTx4 into telemetered free ranging ferrets in 4 cohorts of 3 animals over concentration ranging from 0.2 to 5 mg/kg at Covance Drug Development Company. This study was one of the main recommendations given us by the TACT advisory panel in Spring 2011. Particular attention was given to QT intervals, arterial pressure (mean, systolic and diastolic) and core temperature for 24 hours following IV injection.

Data set [1] is described as follows: Tissue distribution over 24 hrs after a single dosing. The data set is classed as in vivo, mouse. To be noted: for Tmax: mouse, blood, read-out: time of peak blood concentration. How it is done:
This example describes the tissue distribution of GsMTx-4. Mice were dosed with D-GsMTx4 by three methods of administration and sacrificed at different time points over 24 hrs by Covance Drug Development Company. Tissues were harvested and sent frozen to Custom Biologics Company for concentration analysis. There were three animals per cohort and 7 time points distributed approximately logarithmically over 24 hours following a single dosing. We followed the distribution of peptide for three routes of administration −5 mg/kg IV, 50 mg/kg subQ and 50 mg/kg GI lavage. […] We sampled 7 different tissues including EDL muscle, diaphragm, brain, bladder, heart, liver and blood. […] Under both methods the peptide peaked in all tissues at about 2 hrs and plateaued for the 24 hr experiment duration. […] The distribution followed a pattern reflecting the relative capillary permeability of the tissue. […] Since the peptide has a strong partition coefficient to lipids, the mean concentration in the tissues is much lower than that in the membrane, the site of action.

In another data set the test system is neurite. The experiment in a line: Neurite initiation and neurite length. The data set is classed as cell-based. From the text: The peptide GsMTx4 of the present invention can be prepared for pharmaceutical use by incorporation with a pharmaceutically acceptable carrier or diluent. The peptide can be formulated into tablets, capsules, caplets and the like. Suitable carriers for tablets include calcium carbonate, starch, lactose, talc, magnesium stearate and gum acacia. The peptide can also be formulated for oral, parenteral or intravenous administration in aqueous solutions, aqueous alcohol, glycol or oil solutions or emulsions. The peptide can also be formulated for inhaling by encapsulating to facilitate alveolar absorption as has been done for insulin (Inhale Therapeutic Systems, San Carlos, Calif., inhale.com). Pharmaceutical compositions suitable for such routes of administration are well known in the art. For example, suitable forms and compositions of pharmaceutical preparations can be found in Remington's Pharmaceutical Science, 1980, 15^thed. Mack Publishing Co., Easton, Pa. Thus, the peptide GsMTx4 can be administered orally, subcutaneously, parenterally, intravenously, intramuscularly or intranasally. The peptide may also be applied to medical devices that will come into contact blood. Both L and D enantiomers of GsMTx4's and its variants can be used for the present invention. We have previously shown that both L- and D-GsMTx4 block mechanosensitive channel (MSC) activity. Although, we have noted differences in the effects of these enantiomers, both forms are effective. For example, we have observed that the ability of the mirror image form (D-enantiomer) to inhibit mechanically activated ion channels is similar to the wild type peptide (L-form) (Suchyna et al 2004). […] Thus, both L and the D forms can be used in the present invention.

Data set [2] deals with mechanosensitive channel (MSC). Particulars: cited from earlier work.
Data set [3] has as its target deoxygenation-induced Ca2+-permeable cation conductance (Psickle-like).
Data set [4] deals with lysophosphatidic acid (LPA)-activated cation-permeable channel in human SS red cells.
In data set [5] the test system is LPA-induced cation conductance in human SS red cells. Nature of the data set: On-cell patch clamp of LPA-induced cation conductance. The data set is classed as cell-based. To be noted: 5 μM; Na methanesulfonate in bath and pipette, -Vp=-50 mV; n=8. An excerpt:
On-cell patch clamp: Borosilicate pipettes (Corning 7052) pulled with a Narishige two stage puller or a Sutter P97 puller and fire-polished to resistances of 10-20 MΩ were front-filled and then backfilled. Symmetric bath and pipette solutions for studies of seal resistance stability during reversibility tests of the deoxygenation-activated conductance in SAD mouse red cells were (in mM) 140 NaCl, 4 KCl, 1 CaCl2, 1 MgCl2, 10 Na HEPES, pH 7.4. These conditions yielded tight seals in 13% of patch attempts on SAD cells. For study of deoxygenation-induced monovalent cation permeation in the absence of bath Ca^2+ and Mg^2+ recorded in SAD and Berkeley mouse cells and in human cells, symmetric bath and pipette solutions contained (in mM) 150 Na methanesulfonate, 10 Na EDTA, and 10 Na HEPES, pH 7.4. These conditions yielded tight seals in 16% of patch attempts on SAD mouse red cells, 26% of attempts on Berkeley mouse cells, and 30% of attempts on human SS cells. For study of Ca^2+ permeation in human SS cells, bath and pipette solutions contained (in mM) 100 CaCl2, 10 Na HEPES, pH 7.4. These conditions yielded tights seals on 44% of attempts. For all conditions tested in human red cells, 70% of tight seals were sustained through the solution change accompanying deoxygenation to allow recording of current activity.
On-cell patch currents were recorded with the Axopatch 1-D amplifier (Axon Instruments/Molecular Devices, Sunnyvale, Calif.). Holding potential was −Vp=−50 mV (expressed as the negative of the pipette potential (e.g., equivalent to the intracellular potential with respect to the pipette). To determine current-voltage relationships (I-V curves) in Fetchex or Clampex (PCLAMP, Axon Instruments), the realtime control window in gap-free mode was used to record current traces of 10-30 sec duration at holding potentials ranging from −100 to +100 mV, in 25 mV increments. The bath reference electrode was a silver chloride wire with a 3 M KCl agar bridge. Data was filtered at 500 Hz, digitized at 2 kHz by Clampex, and analyzed offline by Fetchan and Pstat or by Clampfit subroutines of PCLAMP. Holding potentials in on-cell patch experiments were expressed as −Vp, the negative of the pipette potential.
Deoxygenation-activated flickering cation conductance observed in human SS cells contrasted with the prolonged channel openings produced by 5 μM LPA (FIG. 10A). In SS cells, LPA increased NPo […], from 0.04±0.03 to 0.82±0.18 (n=8, p<0.001; Na methanesulfonate in bath and pipette, −Vp=−50 mV; FIG. 10B). LPA-induced cation conductance was 96% inhibited by 100 uM dipyridamole in the pipette, and 97% inhibited by 1 μM GsMTx-4 in the pipette (both n=4).

A further data set has as its system human SS red cells. Nature of the data set: Fluo-3 fluorescence measurement of [Ca2+]i after LPA. The data set is classed as cell-based. To be noted: 5 μM; 75 SS red cells. From the text: Fluorescence measurements of cytosolic [Ca^2+] ([Ca^2+]i): After removal of plasma and buffy coat by aspiration, human or mouse red cells were washed three times at room temperature and suspended in modified Hank's solution containing (in mM), 137 NaCl, 5.4 KCl, 1 CaCl2, 1 MgCl2, 0.8 NaK phosphate, 5.6 glucose, and 10 Na HEPES, pH 7.4. Dilute cell suspensions were settled on polylysine-coated coverslips forming the bottom of an open perfusion chamber (2.5 cm diameter, 1 cm depth) and washed again 3 times.
Measurement of relative changes in [Ca^2+]i by Fluo-3 fluorescence emission was previously validated in intact human (Yang et al. 2000, Blood, 95(7):2421-2425; Andrews et al. 2002, Blood, 199(9):3392-3399) and mouse red cells (Akel et al. 2007, Amer. J. Physiol., 292(5):C1759-1767). Attached red cells were loaded in the dark with the fluorescent non-ratiometric Ca^2+ indicator Fluo-3-AM (10 μM, Molecular Probes, Eugene, Oreg.) at 37° C. for 1 hr, then washed and incubated 15 min further to allow de-esterification of intracellular dye. […] Fluorescence emission (proportional to [Ca^2+]i) from a 535ds20 bandpass filter was collected from all attached single cells within the arbitrarily selected visual field. […]

T1 sequence (O15554 whole entry): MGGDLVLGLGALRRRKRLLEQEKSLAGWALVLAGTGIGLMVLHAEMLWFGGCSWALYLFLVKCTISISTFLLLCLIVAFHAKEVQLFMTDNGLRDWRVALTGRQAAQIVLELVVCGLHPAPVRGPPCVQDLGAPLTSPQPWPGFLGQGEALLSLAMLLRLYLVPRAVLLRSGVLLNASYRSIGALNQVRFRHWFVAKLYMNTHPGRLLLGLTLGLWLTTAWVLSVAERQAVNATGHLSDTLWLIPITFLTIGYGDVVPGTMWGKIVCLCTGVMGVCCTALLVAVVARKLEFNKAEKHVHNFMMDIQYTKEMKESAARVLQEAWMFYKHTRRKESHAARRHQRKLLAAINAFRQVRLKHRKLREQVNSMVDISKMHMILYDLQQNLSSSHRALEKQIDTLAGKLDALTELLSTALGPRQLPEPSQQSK

In the case of charybdotoxin, in the data set with KCa3.1, the “effect on A23187-stimulated 86Rb+ influx” value is reported as “completely inhibited”.
As to `CC(C)C[C@H]1NC(=O)[C@H](NC(=O)CN)CSSC[C@H]2NC(=O)[C@H]3CSSC[C@H](C(=O)N[C@H](CC(N)=O)C(=O)N[C@H](Cc4ccccc4)C(=O)N[C@H](CO)C(=O)N[C@H](Cc4ccccc4)C(N)=O)NC(=O)[C@@H](CC(C)C)NC(=O)[C@@H](CCCCN)NC(=O)[C@@H](Cc4ccccc4)NC(=O)[C@@H](CC(C)C)NC(=O)[C@@H](CCCCN)NC(=O)[C@@H](CO)NC(=O)[C@@H](CSSC[C@@H](NC(=O)[C@@H](CCCCN)NC(=O)[C@@H](Cc4c[nH]c5ccccc45)NC(=O)[C@@H](Cc4c[nH]c5ccccc45)NC(=O)[C@@H](Cc4ccccc4)NC(=O)[C@@H](CCC(=O)O)NC1=O)C(=O)N[C@H](CC(N)=O)C(=O)N1CCC[C@@H]1C(=O)N[C@H](CC(N)=O)C(=O)N[C@H](CC(=O)O)C(=O)N[C@H](CC(=O)O)C(=O)N[C@H](CCCCN)C(=O)N3)NC(=O)[C@@H](CCCCN)NC(=O)[C@@H](CC(C)C)NC(=O)[C@@H](CCCCN)NC(=O)[C@H]1CCCN1C(=O)[C@@H](CCCNC(=N)N)NC2=O` [D-GsMTx4] (H-G[dC][dL][dE][dF][dW][dW][dK][dC][dN][dP][dN][dD][dD][dK][dC][dC][dR][dP][dK][dL][dK][dC][dS][dK][dL][dF][dK][dL][dC][dN][dF][dS][dF]-NH2; disulfide 2-17, 9-23, 16-30 (inferred); N-terminus and C-terminus assumed), the toxicity result with mdx mice is “No apparent toxicity”. Besides, the clinical signs entry in the data set on mice (IV 9 mg/kg (highest dose), mice) was “slight tremors and decreased activity”; in the data set with rats (IV 9 mg/kg (highest dose), rat, remained for the 60 minute test duration), “slow respiration, refusal to ambulate, decreased muscle tone”. Besides, in the data set on mice (IV 9 mg/kg, mice), the “duration of clinical signs after injection” value is around 0.5 h. Also, the mortality result in the data set with mice (IV 9, 5, 3 and 1 mg/kg, mice, 1 hour) is listed as “No animals died”; with rats (IV 9, 3 and 1 mg/kg, rats, 1 hour), “No animals died”; in data set [1] (5 mg/kg IV, 50 mg/kg subQ, 50 mg/kg GI lavage, 24 hour), “No animals died”. Also, in the data set on mice (IV, all doses), the “time by which all mice appeared normal” value is at most 1 h. In addition, the behavior changes result in the data set on ferrets was “no behavior changes”. The “changes in QT intervals, arterial pressure and core temperature” value in the data set on ferrets (24 hours) is given as “No statistically significant changes”. Besides, the “time of peak in all tissues” value is given as “about 2 hrs” in [1] (5 mg/kg IV, mice) and “about 2 hrs” in data set [1] (50 mg/kg subQ, mice). For the same compound, the concentration in tissues entry in data set [1] (50 mg/kg GI lavage, mice) is “almost no measurable concentration”. Moreover, the “distribution pattern among tissues” value in [1] (IV and subQ, 7 tissues) is “liver received the most while brain received the least”. In [1] (IV and subQ, 24 hr), the “course of tissue concentration after peak” value is “plateaued”. In addition, the “course of blood concentration after peak” value in data set [1] (IV and subQ, over 24 hrs) was “decreased exponentially”. In addition, the Tmax in data set [1] (sc, 50 mg/kg subQ, mice) was at most 2 h; in data set [1] (5 mg/kg IV, mice), at most 2 h. Further, in data set [1] (suggested by the distribution data), the “effective half life of bound drug” value is “very long”. The “effect on neurite length” value in the data set with neurite is “no significant effect”. The neurite initiation result with neurite is recorded as “did not stimulate”. Moreover, the “ability to inhibit mechanically activated ion channels compared with wild type peptide (L-form)” value in [2] (Suchyna et al 2004) is recorded as “similar”. The “effect on mechanosensitive channel (MSC) activity” value in [2] (previously shown) is “block”.
In data set [3], “Grammastola spatulata mechanotoxin 4 (GsMTx4) (peptide)” displayed an NPo of deoxygenation-induced cation conductance, on-cell patch on human SS red cells, Na methanesulfonate in pipette and bath of 0.003 NPo. Also, in [4], the LPA-induced cation conductance (NPo), on-cell patch on human SS red cells stood at 97 % inhibited.
For lysophosphatidic acid [LPA], in [5], the NPo after exposure is given as 0.82±0.18 and the “increase in NPo” value amounted to 16 fold. Moreover, the “effect on [Ca2+]i (Fluo-3 fluorescence)” value in the data set on human SS red cells was “elevated”.
